The record followed here is ChEMBL document CHEMBL4304773, “Nitroimidazole-containing compounds and their antibacterial and antitubercular activities” (2019).

Converted amounts (≈) assume the structure as drawn.

Format in all cases: functional
The subject of one experiment is Acinetobacter baumannii. As to the kind of experiment: Antibacterial activity against Acinetobacter baumannii.
Experiment [1] has as its system Escherichia coli. The experiment can be described thus: Antibacterial activity against Escherichia coli.
Experiment [2] relates to Staphylococcus aureus. As to the kind of experiment: Antibacterial activity against Staphylococcus aureus ATCC 25923.
The test system of experiment [3] is Escherichia coli. The experiment can be described thus: Antibacterial activity against Escherichia coli ATCC 25922.
The next experiment concerns Enterococcus faecalis. As to the kind of experiment: Antibacterial activity against Enterococcus faecalis.
Experiment [4] relates to Staphylococcus aureus. The experiment can be described thus: Antibacterial activity against methicillin-resistant Staphylococcus aureus N315.
Experiment [5] deals with Pseudomonas aeruginosa. The experiment can be described thus: Antibacterial activity against Pseudomonas aeruginosa.
Experiment [6] deals with Staphylococcus aureus. The experiment can be described thus: Antibacterial activity against Staphylococcus aureus ATCC 29213.
In the next experiment the test system is Klebsiella pneumoniae. As to the kind of experiment: Antibacterial activity against Klebsiella pneumoniae.
Experiment [7] relates to Pseudomonas aeruginosa. As to the kind of experiment: Antibacterial activity against Pseudomonas aeruginosa ATCC 27853.
Experiment [8] has as its system Escherichia coli. As to the kind of experiment: Antibacterial activity against Escherichia coli ATCC 25922 after 24 hrs by NCCLS method. The conditions noted are these: ATCC 25922, 24 h.
Experiment [9] has as its system Staphylococcus aureus. The experiment can be described thus: Antibacterial activity against Staphylococcus aureus ATCC 25923 after 24 hrs by NCCLS method. The conditions noted are these: ATCC 25923, 24 h.
Experiment [10] relates to Pseudomonas aeruginosa. As to the kind of experiment: Antibacterial activity against Pseudomonas aeruginosa ATCC 27853 after 24 hrs by NCCLS method. The conditions noted are these: ATCC 27853, 24 h.
Experiment [11] deals with Bacillus subtilis. As to the kind of experiment: Antibacterial activity against Bacillus subtilis ATCC 530 after 24 hrs by NCCLS method. The following applies: ATCC 530, 24 h.
Experiment [12] deals with Escherichia coli. The experiment can be described thus: Antibacterial activity against Escherichia coli infected in mouse.
The subject of experiment [13] is Staphylococcus aureus. As to the kind of experiment: Antibacterial activity against Staphylococcus aureus.
Another experiment has as its system Candida albicans. The experiment can be described thus: Antifungal activity against Candida albicans.
The test system of experiment [14] is Bacillus subtilis. As to the kind of experiment: Antibacterial activity against Bacillus subtilis.

Consider `CCCCCCN1CCN(c2ccc3c4c(cccc24)C(=O)N(CC(O)Cn2c([N+](=O)[O-])cnc2C)C3=O)CC1` (stereo not drawn), for which the minimum inhibitory concentration (MIC) (as a rule, the least concentration at which growth counts as inhibited) in the experiment on Acinetobacter baumannii lay within 13 to 1020 µM (≈ 7.13 to 560 µg/mL); with Escherichia coli [1], 13 to 1020 µM; with Staphylococcus aureus [2] it was 13 to 1020 µM (≈ 7.13 to 560 µg/mL); in the experiment on Escherichia coli [3] it was 13 to 1020 µM (≈ 7.13 to 560 µg/mL); in the experiment on Enterococcus faecalis, 13 to 1020 µM (≈ 7.13 to 560 µg/mL); with Staphylococcus aureus [4], 13 to 1020 µM (≈ 7.13 to 560 µg/mL). Moreover, the MIC was in the range of 13 to 1020 µM with Pseudomonas aeruginosa [5], 13 to 1020 µM (≈ 7.13 to 560 µg/mL) with Staphylococcus aureus [6], 13 to 1020 µM (≈ 7.13 to 560 µg/mL) against Klebsiella pneumoniae and 13 to 1020 µM (≈ 7.13 to 560 µg/mL) with Pseudomonas aeruginosa [7].

Regarding `Cc1ccc(-n2nc(C)c(/C=N/NC(=O)Cn3c([N+](=O)[O-])cnc3C)c2Oc2ccccc2)cc1`, the MIC in the experiment with Escherichia coli [8], in the experiment with Staphylococcus aureus [9], against Pseudomonas aeruginosa [10] and against Bacillus subtilis [11] was 3.12 to 50 µg/mL (≈ 6.59 to 106 µM) throughout.

Take `CCn1cc(C(=O)O)c(=O)c2cc(F)c(N3CCN(CCn4c([N+](=O)[O-])cnc4C)CC3)cc21`: in the experiment on Escherichia coli [12], the ED50 (usually the midpoint of the dose-response relation) was 2.56 to 3.88 mg/kg.

`CCCCCCCCN1CCN(c2ccc3c4c(cccc24)C(=O)N(CC(O)Cn2c([N+](=O)[O-])cnc2C)C3=O)CC1` (stereo not drawn): the MIC was in the range of 13 to 1020 µM (≈ 7.5 to 588 µg/mL) against Acinetobacter baumannii; 13 to 1020 µM in the experiment with Escherichia coli [1]; 13 to 1020 µM (≈ 7.5 to 588 µg/mL) in the experiment with Staphylococcus aureus [2]; 13 to 1020 µM (≈ 7.5 to 588 µg/mL) with Escherichia coli [3]; 13 to 1020 µM (≈ 7.5 to 588 µg/mL) in the experiment on Enterococcus faecalis; 13 to 1020 µM (≈ 7.5 to 588 µg/mL) against Staphylococcus aureus [4]. Besides, the MIC with Pseudomonas aeruginosa [5] is 13 to 1020 µM; with Staphylococcus aureus [6], 13 to 1020 µM (≈ 7.5 to 588 µg/mL); against Klebsiella pneumoniae, 13 to 1020 µM (≈ 7.5 to 588 µg/mL); in the experiment on Pseudomonas aeruginosa [7] it was 13 to 1020 µM (≈ 7.5 to 588 µg/mL).

As for `Cc1ccc(Oc2c(/C=N/NC(=O)Cn3c([N+](=O)[O-])cnc3C)c(C)nn2-c2ccccc2)cc1`, the MIC against Escherichia coli [8], in the experiment with Staphylococcus aureus [9], in the experiment with Pseudomonas aeruginosa [10] and with Bacillus subtilis [11] was 3.12 to 50 µg/mL (≈ 6.59 to 106 µM) in each case.

Consider `CCn1cc(C(=O)OC)c(=O)c2cc(F)c(N3CCN(CCn4c([N+](=O)[O-])cnc4C)CC3)cc21`, for which, in the experiment with Escherichia coli [12], the ED50 lay within 3.5 to 13.2 mg/kg.

`CCCCCCCCCCCCN1CCN(c2ccc3c4c(cccc24)C(=O)N(CC(O)Cn2c([N+](=O)[O-])cnc2C)C3=O)CC1` (stereo not drawn): the MIC was in the range of 13 to 1020 µM (≈ 8.23 to 645 µg/mL) in the experiment on Acinetobacter baumannii; 13 to 1020 µM in the experiment on Escherichia coli [1]; 13 to 1020 µM (≈ 8.23 to 645 µg/mL) in the experiment with Staphylococcus aureus [2]; 13 to 1020 µM (≈ 8.23 to 645 µg/mL) in the experiment on Escherichia coli [3]; 13 to 1020 µM (≈ 8.23 to 645 µg/mL) against Enterococcus faecalis; 13 to 1020 µM (≈ 8.23 to 645 µg/mL) against Staphylococcus aureus [4]. Moreover, the MIC in the experiment on Pseudomonas aeruginosa [5] fell in the range of 13 to 1020 µM; with Staphylococcus aureus [6], 13 to 1020 µM (≈ 8.23 to 645 µg/mL); with Klebsiella pneumoniae, 13 to 1020 µM (≈ 8.23 to 645 µg/mL); in the experiment on Pseudomonas aeruginosa [7], 13 to 1020 µM (≈ 8.23 to 645 µg/mL).

Consider `Cc1ncc([N+](=O)[O-])n1CC(O)CN1C(=O)c2cccc3c(N4CCOCC4)ccc(c23)C1=O` (stereo not drawn), for which the MIC fell in the range of 69 to 1140 µM (≈ 32.1 to 531 µg/mL) against Acinetobacter baumannii; 69 to 1140 µM against Escherichia coli [1]; 69 to 1140 µM (≈ 32.1 to 531 µg/mL) in the experiment on Staphylococcus aureus [2]; 69 to 1140 µM (≈ 32.1 to 531 µg/mL) against Escherichia coli [3]; 69 to 1140 µM (≈ 32.1 to 531 µg/mL) in the experiment on Enterococcus faecalis; 69 to 1140 µM (≈ 32.1 to 531 µg/mL) against Staphylococcus aureus [4]. Further, the MIC with Pseudomonas aeruginosa [5] lay within 69 to 1140 µM; with Staphylococcus aureus [6], 69 to 1140 µM (≈ 32.1 to 531 µg/mL); with Klebsiella pneumoniae, 69 to 1140 µM (≈ 32.1 to 531 µg/mL); against Pseudomonas aeruginosa [7] it was 69 to 1140 µM (≈ 32.1 to 531 µg/mL).

In the case of `COC(=O)c1cn(C2CC2)c2cc(N3CCN(CCn4c([N+](=O)[O-])cnc4C)CC3)c(F)cc2c1=O`, the ED50 in the experiment on Escherichia coli [12] was 3.5 to 13.2 mg/kg.

For `CCN1CCN(c2ccc3c4c(cccc24)C(=O)N(CC(O)Cn2c([N+](=O)[O-])cnc2C)C3=O)CC1` (stereo not drawn), the MIC lay in the range of 13 to 1020 µM (≈ 6.4 to 502 µg/mL) with Acinetobacter baumannii; 13 to 1020 µM with Escherichia coli [1]; 13 to 1020 µM (≈ 6.4 to 502 µg/mL) in the experiment on Staphylococcus aureus [2]; 13 to 1020 µM (≈ 6.4 to 502 µg/mL) with Escherichia coli [3]; 13 to 1020 µM (≈ 6.4 to 502 µg/mL) against Enterococcus faecalis; 13 to 1020 µM (≈ 6.4 to 502 µg/mL) in the experiment with Staphylococcus aureus [4]. Also, the MIC lay within 13 to 1020 µM against Pseudomonas aeruginosa [5], 13 to 1020 µM (≈ 6.4 to 502 µg/mL) against Staphylococcus aureus [6], 13 to 1020 µM (≈ 6.4 to 502 µg/mL) against Klebsiella pneumoniae and 13 to 1020 µM (≈ 6.4 to 502 µg/mL) with Pseudomonas aeruginosa [7].

Turning to `Cc1ncc([N+](=O)[O-])n1CC(O)CN1C(=O)c2cccc3c(N4CCCC4)ccc(c23)C1=O` (stereo not drawn), the MIC fell in the range of 69 to 1140 µM (≈ 31 to 512 µg/mL) in the experiment with Acinetobacter baumannii; 69 to 1140 µM in the experiment with Escherichia coli [1]; 69 to 1140 µM (≈ 31 to 512 µg/mL) in the experiment on Staphylococcus aureus [2]; 69 to 1140 µM (≈ 31 to 512 µg/mL) against Escherichia coli [3]; 69 to 1140 µM (≈ 31 to 512 µg/mL) in the experiment on Enterococcus faecalis; 69 to 1140 µM (≈ 31 to 512 µg/mL) against Staphylococcus aureus [4]. In addition, the MIC was 69 to 1140 µM against Pseudomonas aeruginosa [5], 69 to 1140 µM (≈ 31 to 512 µg/mL) against Staphylococcus aureus [6], 69 to 1140 µM (≈ 31 to 512 µg/mL) against Klebsiella pneumoniae and 69 to 1140 µM (≈ 31 to 512 µg/mL) in the experiment on Pseudomonas aeruginosa [7].

Take `CCn1cc(C(=O)OC)c(=O)c2cc(F)c(N3CCN(CCn4c([N+](=O)[O-])cnc4C)CC3)nc21`: the ED50 with Escherichia coli [12] lay in the range of 3.5 to 13.2 mg/kg.

In the case of `CCn1cc(C(=O)O)c(=O)c2cc(F)c(N3CCNCC3)nc21` [ENOXACIN], the 50% effect level with Escherichia coli [12] (ED50) was put at a dose of 4.22 mg/kg.

Take `CC(=O)N1N=C(Cn2c([N+](=O)[O-])cnc2C)OC1c1ccc2c(c1)OCO2` (stereo not drawn): the MIC was 0.25 to 0.5 µg/mL against Escherichia coli [1]; 0.25 to 0.5 µg/mL (≈ 0.67 to 1.34 µM) against Staphylococcus aureus [13]; 0.25 to 0.5 µg/mL with Pseudomonas aeruginosa [5]; 0.25 to 0.5 µg/mL (≈ 0.67 to 1.34 µM) in the experiment with Candida albicans; 0.25 to 0.5 µg/mL (≈ 0.67 to 1.34 µM) in the experiment with Bacillus subtilis [14].
